Tested on: 323965-272-R-J2-PDC complex spheroid viability
Experiment: Anticancer human tumor 323965-272-R-J2-PDC patient-derived pancreatic carcinoma cell line growth inhibition [CLK]
Details: for IC50: curve of first compound; for viability, T/C: stronger effect = lower value; active = viability on the fitted dose curve at most 10% of control; inactive = the rest
Procedure, shortened: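 Patient-derived tumor cells grown as complex spheroids with HUVEC endothelial cells and mesenchymal stem cells, treated with drug combinations. Concentrations descend in half-log steps from near clinical Cmax, or from 10 microM if Cmax unknown.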

[1] = second compound 0.0316 µM, first compound 0.0316 µM
[2] = second compound 0.0316 µM, first compound 0.1 µM
[3] = second compound 0.0316 µM, first compound 0.316 µM
[4] = second compound 0.0316 µM, first compound 1 µM
[5] = second compound 0.1 µM, first compound 0.0316 µM
[6] = second compound 0.1 µM, first compound 0.1 µM
[7] = second compound 0.1 µM, first compound 0.316 µM
[8] = second compound 0.1 µM, first compound 1 µM
[9] = second compound 0.316 µM, first compound 0.0316 µM
[10] = second compound 0.316 µM, first compound 0.1 µM
[11] = second compound 0.316 µM, first compound 0.316 µM
[12] = second compound 0.316 µM, first compound 1 µM
[13] = second compound 1 µM, first compound 0.0316 µM
[14] = second compound 1 µM, first compound 0.1 µM
[15] = second compound 1 µM, first compound 0.316 µM
[16] = second compound 1 µM, first compound 1 µM
[17] = second compound 3.16 µM, first compound 0.0316 µM
[18] = second compound 3.16 µM, first compound 0.1 µM
[19] = second compound 3.16 µM, first compound 0.316 µM
[20] = second compound 3.16 µM, first compound 1 µM
[21] = second compound 10 µM, first compound 0.0316 µM
[22] = second compound 10 µM, first compound 0.1 µM
[23] = second compound 10 µM, first compound 0.316 µM
[24] = second compound 10 µM, first compound 1 µM
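Note: spheroids exposed to agents for seven days before readout.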
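Throughout, for viability, T/C: percent of DMSO vehicle control wells so 100% = untreated growth.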

CC(C)CC(NC(=O)C(Cc1ccccc1)NC(=O)c1cnccn1)B(O)O (stereo unspecified) + CN1CCN(c2cc(C(=O)Nc3cc4cc(-c5cnn(C)c5)ccc4cn3)ccn2)CC1
< 0.949 nM: IC50 (second compound 0.316 µM) | IC50 (second compound 1 µM) | IC50 (second compound 3.16 µM) | IC50 (second compound 10 µM)
active: viability, T/C (second compound 0.0316 µM, first compound 0.00949 µM) 5.27% | viability, T/C (second compound 0.0316 µM, first compound 0.03 µM) 0.67% | viability, T/C (second compound 0.0316 µM, first compound 0.0949 µM) 0.27% | viability, T/C (second compound 0.0316 µM, first compound 0.3 µM) 0.2% | viability, T/C (second compound 0.1 µM, first compound 0.00949 µM) 4.08% | viability, T/C (second compound 0.1 µM, first compound 0.03 µM) 0.54% | viability, T/C (second compound 0.1 µM, first compound 0.0949 µM) 0.24% | viability, T/C (second compound 0.1 µM, first compound 0.3 µM) 0.21% | viability, T/C (second compound 0.316 µM, first compound 0.00949 µM) 2.6% | viability, T/C (second compound 0.316 µM, first compound 0.03 µM) 0.27% | viability, T/C (second compound 0.316 µM, first compound 0.0949 µM) 0.18% | viability, T/C (second compound 0.316 µM, first compound 0.3 µM) 0.3% | viability, T/C (second compound 1 µM, first compound 0.000949 µM) 5.63% | viability, T/C (second compound 1 µM, first compound 0.003 µM) 1.53% | viability, T/C (second compound 1 µM, first compound 0.00949 µM) 0.21% | viability, T/C (second compound 1 µM, first compound 0.03 µM) 0.19% | viability, T/C (second compound 1 µM, first compound 0.0949 µM) 0.2% | viability, T/C (second compound 1 µM, first compound 0.3 µM) 1.89% | viability, T/C (second compound 3.16 µM, first compound 0.000949 µM) 5.74% | viability, T/C (second compound 3.16 µM, first compound 0.003 µM) 2.25% | viability, T/C (second compound 3.16 µM, first compound 0.00949 µM) 1.98% | viability, T/C (second compound 3.16 µM, first compound 0.03 µM) 0.31% | viability, T/C (second compound 3.16 µM, first compound 0.0949 µM) 0.19% | viability, T/C (second compound 3.16 µM, first compound 0.3 µM) 2.14% | viability, T/C (second compound 10 µM, first compound 0.000949 µM) 4.58% | viability, T/C (second compound 10 µM, first compound 0.003 µM) 2.17% | viability, T/C (second compound 10 µM, first compound 0.00949 µM) 0.45% | viability, T/C (second compound 10 µM, first compound 0.03 µM) 0.32% | viability, T/C (second compound 10 µM, first compound 0.0949 µM) 5.38% | viability, T/C (second compound 10 µM, first compound 0.3 µM) 2.98%
4.13 nM: IC50 (second compound 0.0316 µM) | IC50 (second compound 0.1 µM)
inactive: viability, T/C (second compound 0.0316 µM, first compound 0.000949 µM) 102% | viability, T/C (second compound 0.0316 µM, first compound 0.003 µM) 67.1% | viability, T/C (second compound 0.1 µM, first compound 0.000949 µM) 70.2% | viability, T/C (second compound 0.1 µM, first compound 0.003 µM) 67.7% | viability, T/C (second compound 0.316 µM, first compound 0.000949 µM) 27.6% | viability, T/C (second compound 0.316 µM, first compound 0.003 µM) 27.3%

CCN1CCN(Cc2ccc(Nc3ncc(F)c(-c4cc(F)c5nc(C)n(C(C)C)c5c4)n3)nc2)CC1 + CNC(=O)c1ccc(Nc2nc(OC3CCCC3)c3c(-c4ccc5nc(C)oc5c4)c[nH]c3n2)c(OC)c1
inactive: viability, T/C (second compound 0.0316 µM, first compound 0.00316 µM) 90.3% | viability, T/C (second compound 0.0316 µM, first compound 0.01 µM) 103% | viability, T/C [1] 86.9% | viability, T/C [2] 68.4% | viability, T/C [3] 66.2% | viability, T/C [4] 74.3% | viability, T/C (second compound 0.1 µM, first compound 0.00316 µM) 84.9% | viability, T/C (second compound 0.1 µM, first compound 0.01 µM) 73.4% | viability, T/C [5] 60.6% | viability, T/C [6] 63.1% | viability, T/C [7] 55.7% | viability, T/C [8] 67.6% | viability, T/C (second compound 0.316 µM, first compound 0.00316 µM) 64.1% | viability, T/C (second compound 0.316 µM, first compound 0.01 µM) 53.4% | viability, T/C [9] 54.2% | viability, T/C [10] 44.2% | viability, T/C [11] 50.6% | viability, T/C [12] 57.6% | viability, T/C (second compound 1 µM, first compound 0.00316 µM) 48.5% | viability, T/C (second compound 1 µM, first compound 0.01 µM) 40.5% | viability, T/C [13] 45.9% | viability, T/C [14] 49.4% | viability, T/C [15] 40.4% | viability, T/C [16] 61.7% | viability, T/C (second compound 3.16 µM, first compound 0.00316 µM) 42.8% | viability, T/C (second compound 3.16 µM, first compound 0.01 µM) 39.2% | viability, T/C [17] 37.6% | viability, T/C [18] 39.8% | viability, T/C [19] 43.1% | viability, T/C [20] 46.8% | viability, T/C (second compound 10 µM, first compound 0.00316 µM) 42.7% | viability, T/C (second compound 10 µM, first compound 0.01 µM) 46.4% | viability, T/C [21] 41.5% | viability, T/C [22] 38.5% | viability, T/C [23] 46% | viability, T/C [24] 48.5%
> 1000 nM: IC50 (second compound 0.0316 µM) | IC50 (second compound 0.1 µM) | IC50 (second compound 0.316 µM)
< 3.16 nM: IC50 (second compound 1 µM) | IC50 (second compound 3.16 µM) | IC50 (second compound 10 µM)

Nc1ccn(C2OC(CO)C(O)C2(F)F)c(=O)n1 (stereo unspecified) + CN1CCN(c2cc(C(=O)Nc3cc4cc(-c5cnn(C)c5)ccc4cn3)ccn2)CC1
inactive: viability, T/C [1] 35.2% | viability, T/C [2] 30.6% | viability, T/C [3] 33.9% | viability, T/C [4] 36.6% | viability, T/C (second compound 0.0316 µM, first compound 3.16 µM) 25.3% | viability, T/C (second compound 0.0316 µM, first compound 10 µM) 24.8% | viability, T/C [5] 31.1% | viability, T/C [6] 29.9% | viability, T/C [7] 28.6% | viability, T/C [8] 23% | viability, T/C (second compound 0.1 µM, first compound 3.16 µM) 20.9% | viability, T/C (second compound 0.1 µM, first compound 10 µM) 19.5% | viability, T/C [9] 18.4% | viability, T/C [10] 20.2% | viability, T/C [11] 16.6% | viability, T/C [12] 19.8% | viability, T/C (second compound 0.316 µM, first compound 3.16 µM) 15.2% | viability, T/C (second compound 0.316 µM, first compound 10 µM) 13.6%
< 31.6 nM: IC50 (second compound 0.0316 µM) | IC50 (second compound 0.1 µM) | IC50 (second compound 0.316 µM) | IC50 (second compound 1 µM) | IC50 (second compound 3.16 µM) | IC50 (second compound 10 µM)
active: viability, T/C [13] 2.74% | viability, T/C [14] 3.71% | viability, T/C [15] 5.04% | viability, T/C [16] 3.41% | viability, T/C (second compound 1 µM, first compound 3.16 µM) 3.52% | viability, T/C (second compound 1 µM, first compound 10 µM) 1.82% | viability, T/C [17] 3.79% | viability, T/C [18] 4.62% | viability, T/C [19] 5.76% | viability, T/C [20] 4.04% | viability, T/C (second compound 3.16 µM, first compound 3.16 µM) 4.01% | viability, T/C (second compound 3.16 µM, first compound 10 µM) 6.04% | viability, T/C [21] 3.95% | viability, T/C [22] 5.3% | viability, T/C [23] 4.73% | viability, T/C [24] 4.61% | viability, T/C (second compound 10 µM, first compound 3.16 µM) 5.93% | viability, T/C (second compound 10 µM, first compound 10 µM) 4.49%

Source: PubChem BioAssay AID2060619 (Molecular Pharmacology Branch, DTP, NCI, 2025)
